Measurements as given in patent US20230210864A1, “AGENT FOR PROMOTING CORNEAL ENDOTHELIAL CELL ADHESION” (Senju Pharmaceutical Co., Ltd., priority 2007, published 2023).

System: monkey corneal endothelial cells
Assay: Adhesion of cultured monkey corneal endothelial cells with fasudil, CellTiter-Glo Luminescent Cell Viability Assay
Type: cell-based, Macaca fascicularis
Details: fasudil 10 μM, passage-cultured cells
Experimental: From the corneal tissue isolated from Macaca fascicularis euthanized, Descemet's membrane with corneal endothelial cells attached thereto was separated. The Descemet's membrane was incubated together with Dispase II (1.2 U/ml, Roche Applied Science) under the conditions of 37° C., 5% CO2 for 45 min, and the corneal endothelial cells were mechanically separated by a pipetting operation. The separated corneal endothelial cells were centrifuged and passage-cultured in a medium for corneal endothelium. As the medium for corneal endothelium, the same cell culture medium as in Example 1 was used. The cultured monkey corneal endothelial cells collected during the passage culture by a 0.05% trypsin treatment were separated and centrifuged, and stirred to the same concentration in a medium for corneal endothelium added with fasudil (10 μM, SIGMA-ALDRICH) in the fasudil group and in a medium for corneal endothelium without addition of fasudil in the control group, and the cells were seeded on a 96 well plate at a density of about 2000 cells per well. At 24 hr from the start of the culture, the adhered cells were counted using CellTiter-Glo (registered trade mark) Luminescent Cell Viability Assay (Promega) (FIG. 17).

## O=S(=O)(c1cccc2cnccc12)N1CCCNCC1 [fasudil, 1-(5-isoquinolinesulfonyl)homopiperazine]
  cell adhesion of corneal endothelial cells at 24 hr, compared to control group: effect of promoted cell adhesion of the corneal endothelial cells was also found
